Measured values from patent US10123985B2, “Therapeutic strategies for treating mitochondrial disorders” (Whitehead Institute for Biomedical Research, priority 2015, dated 2018).
Entries after “also recorded” stand apart in the source; their conditions may differ.

Experiments:
143B CytB cells [1] = assay: Proliferation assay of respiration-incompetent 143B CytB cybrid cells; type: cell-based; details: media supplemented with the substance; no pyruvate unless tested, uridine present
Method: FL5.12 cells were cultured in the same medium and supplemented with 5 μg/mL recombinant mouse IL-3 (R&D Systems). […] All cells incubated at 37° C. with 5% CO2.
Adherent cell lines growing in log phase were trypsinized, counted, and plated onto 6 well dishes (Corning) in 2 mL complete DMEM and incubated overnight. […] The following day, one plate of cells was counted to determine the initial cell count at the time of treatment. Cells were washed 2 times with 2 mL phosphate buffered saline (PBS) and 4 mL media premixed with the indicated treatments was added. FL5.12 cells, a suspension cell line, were washed 2 times in PBS and added directly to media containing the indicated treatments and 5 μg/mL recombinant mouse IL-3. Proliferation rate assay media was DMEM without pyruvate containing 10% dialyzed FBS, penicillin-streptomycin, and 0.1 mg/mL uridine, unless otherwise noted. […] Cells were counted using Cellometer Auto T4 Plus Cell Counter (Nexcelom Bioscience). Proliferation rate was determined using the following formula: Proliferation Rate (Doublings per day)=(log2(Final cell count (day 5)/Initial cell count (day 1))/4 (days)

143B CytB cells [2] = assay: Cell cycle distribution by propidium iodide flow cytometry; type: cell-based; details: 143B CytB cells, 100 μM adenine, 78 hours
Method: 143B CytB cells were incubated in untreated media or media containing AKB or 100 μM adenine for 78 hours before being washed with PBS, trypsinized, pelleted, and resuspended in 500 μL PBS. Cells were fixed by adding 4.5 mL 70% ethanol and incubated at 4° C. overnight. The following day cells were pelleted and resuspended in 1 mL PBS+0.1% (v/v) Triton X-100. RNase A and then propidium iodide (PI) were added to 0.2 mg/mL and 20 μg/mL, respectively. Samples were incubated at 37° C. for 15 minutes and filtered into a flow cytometry tube. DNA content was measured by flow cytometry (BD FACS Canto II) and analyzed (FACS Diva Software).

Jurkat cells [3] = assay: Proliferation assay (Cell Titer Glo, 5 days) of wild type and knock-out Jurkat cells; type: cell-based, human
Method: sgRNAs (oligonucleotide sequences are indicated above) were cloned into lentiCRISPR-v1 linearized with BsmBI by Gibson Assembly (NEB). sgRNA expressing vector along with lentiviral packaging vectors Delta-VPR and CMV VSVG were transfected into HEK-293T cells using the XTremeGene 9 transfection reagent (Roche). Similarly, for overexpression cell lines, cDNA vectors along with retroviral packaging vectors gag-pol and CMV VSV-G were transfected into HEK-293T cells. Media was changed 24 hours after transfection.

[4] = tested on: Raji lymphoma and KMS-26 multiple myeloma cells; type: cell-based, human; details: 5-day treatment
Method: […]. Media was changed 24 hours after transfection.

Jurkat cells [5] = assay: Seahorse oxygen consumption of Jurkat cells; type: cell-based, human; details: phenformin (10 μM), wild type and GOT1 null
Method: Oxygen consumption of intact cells was measured using an XF24 Extracellular Flux Analyzer (Seahorse Bioscience). For Jurkat cells, seahorse plates were coated with cell TAK (BD, 0.02 mg/ml in […] NaHO3) for 20 minutes to increase adherence of suspension cells. 200,000 cells were then attached to the plate by centrifugation at 2,200 rpm without brakes for 5 min. RPMI 8226 (US biological #9011) assay media was used as previously described (Birsoy et al., 2014). For basal oxygen consumption measurements the cell number was used to normalize.

Jurkat cells [6] = assay: Metabolite profiling (LC/MS) of Jurkat cells; type: cell-based, human
Method: (§1) LC/MS analyses were conducted on a QExactive benchtop orbitrap mass spectrometer equipped with an Ion Max source and a HESI II probe, which was coupled to a Dionex UltiMate 3000 UPLC system (Thermo Fisher Scientific, San Jose, Calif.). External mass calibration was performed using the standard calibration mixture every 7 days.
Polar metabolites were extracted using 1 ml of ice-cold 80% methanol with 10 ng/ml valine-d8 as an internal standard. After a 10 min vortex and centrifugation for 10 min at 4° C. at 10,000 g, samples were dried under nitrogen gas. Dried samples were stored at −80° C. and then resuspended in 100 μL water; 1 μl of each sample was injected onto a ZIC-pHILIC 2.1×150 mm (5 μm particle size) column (EMD Millipore). Buffer A was 20 mM ammonium carbonate, 0.1% ammonium hydroxide; buffer B was acetonitrile. The chromatographic gradient was run at a flow rate of 0.150 ml/min as follows: 0-20 min.: linear gradient from 80% to 20% B; 20-20.5 min.: linear gradient from 20% to 80% B; 20.5-28 min.: hold at 80% B. The mass spectrometer was operated in fullscan, polarity switching mode with the spray voltage set to 3.0 kV, the heated capillary held at 275° C., and the HESI probe held at 350° C. The sheath gas flow was set to 40 units, the auxiliary gas flow was set to 15 units, and the sweep gas flow was set to 1 unit. The MS data acquisition was performed in a range of 70-1000 m/z, with the resolution set at 70,000, the AGC target at 106, and the maximum injection time at 80 msec. Relative quantitation of polar metabolites was performed with XCalibur QuanBrowser 2.2 (Thermo Fisher Scientific) using a 5 ppm mass tolerance and referencing an in-house library of chemical standards.

Jurkat cells [7] = assay: [U-13C]-L-glutamine isotope tracing of aspartate in Jurkat cells; type: cell-based, human; details: phenformin (10 μM)
Method: as §1
Polar metabolites were extracted using 1 ml of ice-cold 80% methanol with 10 ng/ml valine-d8 as an internal standard. After a 10 min vortex and centrifugation for 10 min at 4° C. at 10,000 g, samples were dried under nitrogen gas. Dried samples were stored at −80° C. and then resuspended in 100 μL water; 1 μl of each sample was injected onto a ZIC-pHILIC 2.1×150 mm (5 μm particle size) column (EMD Millipore). Buffer A was 20 mM ammonium carbonate, 0.1% ammonium hydroxide; buffer B was acetonitrile. […] Relative quantitation of polar metabolites was performed with XCalibur QuanBrowser 2.2 (Thermo Fisher Scientific) using a 5 ppm mass tolerance and referencing an in-house library of chemical standards.

[8] = GOT1-null Jurkat cells, 24-hour phenformin

Compound | Proliferation rate of 143B CytB cells (143B CytB cells [1]) | Cell cycle distribution (DNA content) (143B CytB cells [2]) | Proliferation of Jurkat cells (Jurkat cells [3]; 0.5 μM phenformin, pyruvate-free RPMI) | Viability and proliferation of GOT1-null versus wild type Jurkat cells (Jurkat cells [3]; higher concentrations of phenformin, 5 days) | Proliferation of GOT1-null versus wild type Jurkat cells (Jurkat cells [3]; low doses of phenformin, 5 days) | Sensitivity of GOT1-null versus wild type Raji and KMS-26 cells to phenformin [4] | Oxygen consumption (respiration) of Jurkat cells (Jurkat cells [5]) | Other amino acids (Jurkat cells [6]; [8]) | Reduction of cellular aspartate (Jurkat cells [6]; [8]) [fold] | Aspartate level (Jurkat cells [6]; MDH1-null Jurkat cells, phenformin (10 μM) 24 hours) | Fall of aspartate levels (Jurkat cells [6]; wild type Jurkat cells, 24-hour phenformin) [fold] | Aspartate synthesis from [U-13C]-L-glutamine (Jurkat cells [7]; GOT1-null Jurkat cells) | Aspartate synthesis from [U-13C]-L-glutamine (Jurkat cells [7]; wild type Jurkat cells)
Nc1ncnc2nc[nH]c12 [adenine, reference compound] | restored proliferation for one doubling | alleviated the slight accumulation of cells at the S/G2 transition | – | – | – | – | – | – | – | – | – | – | –
[H]/N=C(/N)N/C(=N/[H])NCCc1ccccc1 [phenformin, reference compound] | – | – | only mildly slowed proliferation | GOT1-null cells die; also recorded: GOT1-null cells arrested and died, while the wild type counterparts did not | inhibited the proliferation of GOT1-null cells to a much greater extent than that of wild type cells | GOT1 loss sensitizes various human cell types to phenformin treatment; also recorded: far more sensitive to phenformin than their wild type counterparts | suppressed respiration as measured by oxygen consumption; also recorded: inhibits oxygen consumption of wild type and GOT1 null Jurkat cells | without much effect on other amino acids | ~30 | dropped to the same level as it did in wild type cells | ~3 | almost no generation of aspartate from labeled glutamine | aspartate is mainly synthesized by reductive metabolism of glutamine in a GOT1-dependent manner; also recorded: aspartate synthesis dropped, and what remained came primarily from reductive glutamine metabolism with almost no contribution from the oxidative pathway
